Data published in publication PMC13385394, “Cryo-EM Structure of the TRPC1/5 Heteromer Enables Design of Antidepressant and Anxiolytic Drug with Reduced Side Effects” (Nature Communications, 2026).
“Also recorded” adds a separate entry of the source.

How the values were obtained:
TRPC1/5 = target: T1, TRPC1/5 (Homo sapiens, UniProt P48995+Q9UL62); experiment: Calcium flux assay (Calcium 5 kit, EA 100 nM), hTRPC1 + hTRPC5 in HEK293T cells; assay type: cell-based; conditions: calcium flux screening, 10 μM
T1 construct: Full-length, non-tagged hTRPC1 and hTRPC5 constructs are used for calcium flux assays; expressed in transfected cells; host or cells: HEK293T
Experimental: Full-length, non-tagged hTRPC1 and hTRPC5 constructs are used for calcium flux assays. hTRPC5 is transfected alone or co-transfected with hTRPC1 into HEK293T cells (70–80% confluency) using PEI as the transfection reagent.
The culture medium is removed, and 100 µL of loading buffer (Calcium 5 Assay Kit) is added to each well, followed by a 1-h incubation at 37 °C in 5% CO2. Five minutes before measurement, molecules are added to each well at a final concentration of 10 µM under light-sensitive conditions.

[1] = test system: diet-induced obesity (DIO) mice; experiment: Diet-induced obesity (DIO) model, body weight and food intake; assay type: in vivo, mouse; conditions: 11 days once daily, HC-070 and JD03-02 10 mg/kg i.g., Semaglutide 0.123 mg/kg s.c.
Experimental: A maximum of five mice were housed per cage during the acclimatization period, and three mice per cage during the experimental period. […] The day of administration was defined as day 1 (D1) of the experiment, with a single dose/day administered for 11 consecutive days. Daily observations were made on the animals’ general condition. Body weight was measured on days 1, 3, 5, 7, 9, and 11 post-administrations. Food intake was measured on days 1, 3, 5, 7, and 9 post-administrations by calculating the difference between the amount of food provided and the amount remaining in the cage, divided by the number of animals in the cage to determine the average food intake per mouse. The cumulative food intake during the experiment was calculated by summing the food intake measurements taken on different days.

hTRPC5 = target: T2, hTRPC5 (Homo sapiens, UniProt Q9UL62); experiment: Calcium flux assay (Calcium 5 kit, EA 100 nM), hTRPC5 in HEK293T cells; assay type: cell-based; conditions: calcium flux screening, 10 μM
T2 construct: Full-length, non-tagged hTRPC1 and hTRPC5 constructs are used for calcium flux assays; expressed in transfected cells; host or cells: HEK293T
T2 sequence (Q9UL62 1-973): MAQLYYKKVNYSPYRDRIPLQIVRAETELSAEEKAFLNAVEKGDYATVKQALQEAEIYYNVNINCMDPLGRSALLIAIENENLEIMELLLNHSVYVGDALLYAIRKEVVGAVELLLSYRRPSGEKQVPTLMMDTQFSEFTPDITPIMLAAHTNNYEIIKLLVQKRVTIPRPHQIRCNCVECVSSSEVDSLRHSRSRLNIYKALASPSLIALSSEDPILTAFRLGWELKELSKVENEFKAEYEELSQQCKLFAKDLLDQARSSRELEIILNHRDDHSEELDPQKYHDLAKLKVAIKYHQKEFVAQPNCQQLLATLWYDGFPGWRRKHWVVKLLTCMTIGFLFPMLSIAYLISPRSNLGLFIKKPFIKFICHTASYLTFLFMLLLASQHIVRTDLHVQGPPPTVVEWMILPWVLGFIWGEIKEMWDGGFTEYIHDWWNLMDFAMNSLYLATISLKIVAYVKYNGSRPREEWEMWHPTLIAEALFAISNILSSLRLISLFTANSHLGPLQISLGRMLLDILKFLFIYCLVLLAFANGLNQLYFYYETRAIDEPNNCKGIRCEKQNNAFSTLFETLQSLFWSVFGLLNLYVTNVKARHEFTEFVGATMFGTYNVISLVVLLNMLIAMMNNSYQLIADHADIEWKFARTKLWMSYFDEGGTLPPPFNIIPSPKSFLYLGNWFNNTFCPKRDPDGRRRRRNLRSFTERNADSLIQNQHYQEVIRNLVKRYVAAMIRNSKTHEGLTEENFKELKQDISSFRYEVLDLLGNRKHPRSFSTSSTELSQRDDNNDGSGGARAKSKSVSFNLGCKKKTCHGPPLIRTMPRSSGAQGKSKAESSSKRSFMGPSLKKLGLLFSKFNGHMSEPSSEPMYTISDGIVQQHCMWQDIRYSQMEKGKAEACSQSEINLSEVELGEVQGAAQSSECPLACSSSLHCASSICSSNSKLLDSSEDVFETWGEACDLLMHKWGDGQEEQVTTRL
Experimental: Five minutes before measurement, molecules are added to each well at a final concentration of 10 µM under light-sensitive conditions.

[2] = test system: lateral amygdala (LA) neurons; experiment: Current-clamp recordings in acute brain slices, CCK-4-induced hyperexcitability; assay type: cell-based, mouse; conditions: ex vivo brain slices
Experimental: Coronal brain slices (300 μm) were prepared from male C57BL/6 J mice (8–10 weeks, Jinan Pengyue Laboratory Animal Breeding Co., Ltd., Jinan, China) and initially incubated in ACSF-1.5 at 32 for 30 min, followed by an additional 1 h at room temperature. Subsequently, slices were transferred to oxygenated artificial cerebrospinal fluid (ACSF) containing the test compound and incubated for 2–3 h before being placed in a recording chamber perfused with ACSF-1.5.
Electrophysiological recordings were performed under an Olympus microscope equipped with a 40× long-working-distance objective. Recording electrodes (3-4 MΩ) were pulled from borosilicate glass capillaries. […] After achieving a gigaseal in voltage-clamp mode at −70 mV and establishing whole-cell configuration with series resistance compensation, recordings were switched to current-clamp mode. Step currents ranging from −60 pA to 300 pA (Δ = 20 pA, 500 ms duration, 3 s interval) were applied to evoke action potentials. […] Intracellular solution (mM): 140 K-gluconate, 2 MgCl₂, 8 KCl, 10 HEPES, 2 Na₂-ATP, 0.2 Na₂-GTP; pH adjusted to 7.2 with KOH.
(d) Quantification of action potential
Data are presented as mean ± SEM (n = 11 neurons

[3] = test system: CUMS-induced depressive-like behaviors; experiment: Sucrose preference test (SPT) in CUMS model; assay type: in vivo, mouse; conditions: CUMS mice
Experimental: The stressors included food and water deprivation, foot shock, wet bedding, cage tilting, restraint, shaking, and olfactory stimulation. These seven stressors were randomly applied each week to ensure unpredictability. The stress induction was maintained continuously for 28 days. Following model establishment, the tail suspension test (TST) was performed to confirm the successful induction of depressive-like behaviors. Mice that met the criteria were randomly assigned to experimental groups.
Acute Treatment: A single dose of the test compound was administered, followed by the sucrose preference test (SPT).
Chronic Treatment: Mice were treated daily for 14 consecutive days. The SPT was conducted on day 11, and the forced swimming test (FST) was performed on day 14.
Mice were acclimated to 1% sucrose solution and plain water for 2 days. On the second day, the positions of the sucrose solution and water were swapped to eliminate positional bias. […] Mice were provided with pre-weighed 1% sucrose solution and plain water. […] Sucrose preference (%) was calculated as Sucrose Preference = A/(A + B)×100.

T1 sequence (P48995 whole entry, one chain of several): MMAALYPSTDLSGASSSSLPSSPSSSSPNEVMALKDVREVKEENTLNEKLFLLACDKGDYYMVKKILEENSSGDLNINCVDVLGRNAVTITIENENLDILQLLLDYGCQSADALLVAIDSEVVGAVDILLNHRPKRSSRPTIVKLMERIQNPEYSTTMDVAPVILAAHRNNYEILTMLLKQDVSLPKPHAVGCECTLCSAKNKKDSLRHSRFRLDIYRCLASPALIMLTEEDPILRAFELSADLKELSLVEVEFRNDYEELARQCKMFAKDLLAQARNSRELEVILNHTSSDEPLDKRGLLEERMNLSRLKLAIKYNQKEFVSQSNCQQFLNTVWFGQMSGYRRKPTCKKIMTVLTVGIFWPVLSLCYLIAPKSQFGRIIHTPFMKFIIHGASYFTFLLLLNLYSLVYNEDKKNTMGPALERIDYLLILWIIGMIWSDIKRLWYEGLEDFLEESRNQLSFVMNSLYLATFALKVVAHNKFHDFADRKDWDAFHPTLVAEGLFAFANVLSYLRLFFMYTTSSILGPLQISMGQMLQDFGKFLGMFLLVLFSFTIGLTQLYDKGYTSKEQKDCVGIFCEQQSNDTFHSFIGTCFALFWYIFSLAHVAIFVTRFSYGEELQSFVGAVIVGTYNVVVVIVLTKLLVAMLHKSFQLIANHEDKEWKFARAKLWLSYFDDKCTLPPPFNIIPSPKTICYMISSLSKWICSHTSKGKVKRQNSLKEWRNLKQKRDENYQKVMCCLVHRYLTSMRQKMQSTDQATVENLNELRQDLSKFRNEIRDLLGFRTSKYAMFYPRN

With `CN(C)CCCCn1c(=O)c2c(nc(Oc3cccc(Cl)c3)n2Cc2ccc(Cl)cc2)n(C)c1=O` [H08] the “inhibition of TRPC1/5 heteromers (in words)” value (TRPC1/5) was “strong inhibition”, the body weight [1] was “no significant effect; also recorded: did not affect body weight or food intake” and the food intake [1] was “no significant effect; also recorded: did not affect body weight or food intake”. The “inhibitory activity toward TRPC5 homomers (in words)” value (hTRPC5) was “minimal effect”, the “effect on CCK-4-induced hyperexcitability of lateral amygdala neurons (in words)” value [2] was “selectively suppresses CCK-4-induced hyperexcitability” and the “sucrose intake (SPT), repeated dosing” value ([3]; 11 days once-daily oral, vs vehicle) was “significantly improved sucrose intake”. For the same compound, the “sucrose preference (SPT), single dose” value ([3]; single oral dose, JD03-02 30 mg/kg, 30 mg/kg) was “significantly increased sucrose preference”.
